This passage reports IC50 results from publication PMC3479967 (Evidence-based Complementary and Alternative Medicine : eCAM, 2012).

Like-named read-outs stand apart in the source and are kept apart here.

In general, IC50 refers to the concentration that gives 50% inhibition.

The target in this test is T1, UGT1A4 (Homo sapiens, UniProt P22310).
T1 construct: purchased BD Gentest Corp. (Woburn, MA, USA); host or cells: baculovirus-infected insect cells
T1 sequence (P22310 29-534): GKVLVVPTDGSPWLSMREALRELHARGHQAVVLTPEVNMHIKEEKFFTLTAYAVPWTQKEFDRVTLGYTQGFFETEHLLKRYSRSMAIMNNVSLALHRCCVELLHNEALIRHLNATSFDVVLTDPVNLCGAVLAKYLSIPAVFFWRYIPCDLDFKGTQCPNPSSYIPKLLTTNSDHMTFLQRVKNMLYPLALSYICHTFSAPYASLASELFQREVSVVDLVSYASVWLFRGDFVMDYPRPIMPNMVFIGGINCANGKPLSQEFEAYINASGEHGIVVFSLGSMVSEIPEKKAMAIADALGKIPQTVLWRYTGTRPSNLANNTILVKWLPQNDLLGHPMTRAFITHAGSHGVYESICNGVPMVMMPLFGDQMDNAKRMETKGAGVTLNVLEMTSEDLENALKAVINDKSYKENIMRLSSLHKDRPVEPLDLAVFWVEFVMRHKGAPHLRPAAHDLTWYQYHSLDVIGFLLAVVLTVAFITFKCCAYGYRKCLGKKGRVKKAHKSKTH
As to the kind of experiment: Inhibition of recombinant UGT1A4 activity (TFP glucuronidation). The test is classed as biochemical. The method, then: TFP was used as the substrate for UGT1A4. Trifluoperazine glucuronide (TFPG) formation was measured using a modification of the method reported. […] Reactions were initiated by the addition of UDPGA and incubations were performed at 37°C in a shaking water bath for 20 min. Incubations were terminated by the addition of 4% acetic acid/96% methanol (0.2 mL) and then centrifuged at 20,500 ×g for 15 min. A 40 μL aliquot of the supernatant fraction was injected into the HPLC column. […] A gradient mobile phase consisting initially of 30 : 70, mobile phase A (acetonitrile) verse mobile phase B (0.5% formic acid/water) was brought to a composition of 90 : 10 in 10 min which was held for 7 min, all at a flow rate of 1 mL/min. Column eluant was monitored by UV absorbance 256 nm. […] The negative controls are the incubation without UDPGA.

Where [1] appears, read: recombinant human UGT1A4, 50 μM TFP, mean ± SD, read-out: IC50 for inhibition of UGT1A4 activity.

On to `COc1ccc(-c2oc3c(CC=C(C)C)c(O[C@@H]4O[C@H](CO)[C@@H](O)[C@H](O)[C@H]4O)cc(O)c3c(=O)c2O[C@@H]2O[C@@H](C)[C@H](O)[C@@H](O)[C@H]2O)cc1` [Icariin], for which, under setting [1], the 50% inhibitory concentration (IC50) was found to be 42.8 ± 2.4 µM. Same read-out and setting: with `COc1ccc(-c2oc3c(CC=C(C)C)c(O[C@@H]4O[C@H](CO)[C@@H](O)[C@H](O)[C@H]4O)cc(O)c3c(=O)c2O)cc1` [Icariside I] the figure was above 100 µM. For the compound `COc1ccc(-c2oc3c(CC=C(C)C)c(O)cc(O)c3c(=O)c2O)cc1` [Icaritin], the 50% inhibitory concentration (IC50) is above 100 µM.
